± gives the uncertainty stated by the source.
Test: xn = mol fraction of the nth substance listed

NC(N)=S + O
viscosity [mPa·s], 100 kPa
Details | 293.15 K | 298.15 K | 303.15 K | 308.15 K | 313.15 K
x1 = 0.00045 | 1.01 ± 0.021 | 0.907 ± 0.019 | 0.817 ± 0.017 | 0.735 ± 0.016 | 0.668 ± 0.014
x1 = 0.0009 | 1.019 ± 0.022 | 0.916 ± 0.02 | 0.823 ± 0.018 | 0.747 ± 0.016 | 0.677 ± 0.014
x1 = 0.0013 | 1.029 ± 0.022 | 0.935 ± 0.02 | 0.847 ± 0.018 | 0.763 ± 0.016 | 0.702 ± 0.015

Fc1c(F)c(F)c(F)c(F)c1F + CS(C)=O
viscosity [mPa·s], 101 kPa
Details | x2 = 0.1003 | x2 = 0.2029 | x2 = 0.2999 | x2 = 0.4 | x2 = 0.5001 | x2 = 0.5999 | x2 = 0.7 | x2 = 0.8004 | x2 = 0.9
293.15 K | 0.991 ± 0.01 | 1.058 ± 0.01 | 1.143 ± 0.011 | 1.246 ± 0.012 | 1.365 ± 0.013 | 1.509 ± 0.015 | 1.661 ± 0.016 | 1.806 ± 0.018 | 1.974 ± 0.02
303.15 K | 0.833 ± 0.008 | 0.891 ± 0.009 | 0.961 ± 0.009 | 1.05 ± 0.01 | 1.144 ± 0.011 | 1.267 ± 0.012 | 1.386 ± 0.014 | 1.513 ± 0.015 | 1.641 ± 0.016
313.15 K | 0.703 ± 0.007 | 0.758 ± 0.008 | 0.822 ± 0.008 | 0.904 ± 0.009 | 0.976 ± 0.01 | 1.071 ± 0.01 | 1.171 ± 0.011 | 1.276 ± 0.012 | 1.385 ± 0.013
323.15 K | 0.62 ± 0.006 | 0.659 ± 0.007 | 0.713 ± 0.007 | 0.775 ± 0.008 | 0.839 ± 0.008 | 0.918 ± 0.009 | 0.993 ± 0.01 | 1.077 ± 0.01 | 1.167 ± 0.011

C[NH2+]CCO.O=C([O-])c1ccccc1O + O
100 kPa, x2 = 0.143
Details | viscosity [mPa·s]
298 K | 357.8 ± 15
303 K | 249.1 ± 10
313 K | 128.2 ± 4.7
323 K | 72.71 ± 2.5

C1=Cc2cccc3cccc1c23 + ClC(Cl)Cl
viscosity [mPa·s], 101 kPa
Details | 298.15 K | 303.15 K | 308.15 K | 313.15 K
x1 = 0.1595 | 0.892 ± 0.022 | 0.8295 ± 0.021 | 0.7764 ± 0.019 | 0.7199 ± 0.018
x1 = 0.2105 | 0.9695 ± 0.024 | 0.907 ± 0.023 | 0.8473 ± 0.021 | 0.7968 ± 0.02

Oc1cccc(O)c1 + CCO
Details | viscosity [mPa·s]
323.15 K, 101 kPa, x1 = 0.07 | 1.265 ± 0.0079

CCCC(N)=O + O
298.15 K, 101 kPa
Details | viscosity [mPa·s]
x1 = 0.00213 | 0.906 ± 0.18
x1 = 0.0179 | 1.122 ± 0.23
x1 = 0.0403 | 1.458 ± 0.29
x1 = 0.04319 | 1.511 ± 0.3

CCCC[N+](CCCC)(CCCC)CCCC.[Br-] + O
298.15 K, 101 kPa
Details | viscosity [mPa·s]
x1 = 0.0009 | 0.8723
x1 = 0.0089 | 1.538
x1 = 0.0177 | 2.273

C1CCC(C2CCCCC2)CC1 + c1ccc2c(c1)CCCC2
viscosity [mPa·s], 102 kPa
Details | x2 = 0.1226 | x2 = 0.2394 | x2 = 0.3504 | x2 = 0.4561 | x2 = 0.5573 | x2 = 0.6537 | x2 = 0.747 | x2 = 0.8343 | x2 = 0.9189
293.15 K | 3.67 ± 0.03 | 3.35 ± 0.03 | 3.08 ± 0.03 | 2.87 ± 0.03 | 2.7 ± 0.03 | 2.55 ± 0.03 | 2.44 ± 0.03 | 2.34 ± 0.03 | 2.28 ± 0.03
303.15 K | 2.91 ± 0.02 | 2.67 ± 0.02 | 2.48 ± 0.02 | 2.33 ± 0.02 | 2.2 ± 0.02 | 2.09 ± 0.02 | 2 ± 0.02 | 1.93 ± 0.02 | 1.88 ± 0.02
313.15 K | 2.36 ± 0.02 | 2.19 ± 0.02 | 2.04 ± 0.02 | 1.93 ± 0.02 | 1.83 ± 0.02 | 1.75 ± 0.02 | 1.68 ± 0.02 | 1.62 ± 0.02 | 1.58 ± 0.02
323.15 K | 1.95 ± 0.02 | 1.82 ± 0.02 | 1.71 ± 0.02 | 1.62 ± 0.02 | 1.54 ± 0.02 | 1.48 ± 0.02 | 1.43 ± 0.02 | 1.38 ± 0.02 | 1.35 ± 0.02
